Read-outs that look alike come from different tables or passages of the source.
Target: SOS1-KRas (G12C) (Homo sapiens (Human), UniProt Q07889)
Test: SOS1-KRas (G12C) FRET Assay
Type: binding
[1] = inhibition of SOS1:KRAS interaction, 0.5 nM His10-SOS1 (res. 564-1049), 2.5 nM GST-KRAS (res. 1-169, G12C), 2 hrs at RT

SOS1-KRas (G12C), sequence (Q07889 564-1049, stated change not applied): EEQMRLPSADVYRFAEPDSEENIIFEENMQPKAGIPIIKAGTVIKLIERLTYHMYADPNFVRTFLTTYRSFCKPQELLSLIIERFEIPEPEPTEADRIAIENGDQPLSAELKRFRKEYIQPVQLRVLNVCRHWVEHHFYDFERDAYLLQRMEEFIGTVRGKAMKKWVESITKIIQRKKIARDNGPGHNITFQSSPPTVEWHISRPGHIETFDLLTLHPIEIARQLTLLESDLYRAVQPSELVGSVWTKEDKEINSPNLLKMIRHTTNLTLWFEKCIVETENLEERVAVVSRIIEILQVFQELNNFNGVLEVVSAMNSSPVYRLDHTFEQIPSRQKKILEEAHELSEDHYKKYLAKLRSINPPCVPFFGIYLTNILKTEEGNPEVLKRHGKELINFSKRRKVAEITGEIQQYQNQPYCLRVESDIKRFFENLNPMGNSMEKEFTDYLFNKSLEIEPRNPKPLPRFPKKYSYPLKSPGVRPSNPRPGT

Compound | IC50 [1] | IC50
C[C@@H](NC(=O)c1cc(N2CCOCC2)c(F)cc1N[C@@H]1CN2CCC1CC2)c1cccc(C(C)(F)F)c1F [Example 42, N—((R)-1-(3-(1,1-difluoroethyl)-2-fluorophenyl)ethyl)-4-fluoro-5-morpholino-2-(((S)-quinuclidin-3-yl)amino)benzamide] | 49.5 nM | –
C[C@@H](NC(=O)c1cc(N2CCOCC2)c(F)cc1N[C@H]1CN2CCC1CC2)c1cccc(C(C)(F)F)c1F [Example 43, N—((R)-1-(3-(1,1-difluoroethyl)-2-fluorophenyl)ethyl)-4-fluoro-5-morpholino-2-(((R)-quinuclidin-3-yl)amino)benzamide] | 15.1 nM | –
Cc1c(C#N)cccc1[C@@H](C)NC(=O)c1cc(N2CCOCC2)c(F)cc1N[C@@H]1CN2CCC1CC2 [Example 44, N—((R)-1-(3-cyano-2-methylphenyl)ethyl)-4-fluoro-5-morpholino-2-(((S)-quinuclidin-3-yl)amino)benzamide] | 210 nM | –
Cc1c(C#N)cccc1[C@@H](C)NC(=O)c1cc(N2CCOCC2)c(F)cc1N[C@H]1CN2CCC1CC2 [Example 45, N—((R)-1-(3-cyano-2-methylphenyl)ethyl)-4-fluoro-5-morpholino-2-(((R)-quinuclidin-3-yl)amino)benzamide] | 69.2 nM | –
C[C@@H](NC(=O)c1cc(N2CCOCC2)c(F)cc1NC(C)(C)C#N)c1cccc(C(F)F)c1F [Example 51, (R)-2-((2-cyanopropan-2-yl)amino)-N-(1-(3-(difluoromethyl)-2-fluorophenyl)ethyl)-4-fluoro-5-morpholinobenzamide] | 333 nM | –
C[C@@H](NC(=O)c1cc(N2CCOCC2)c(F)cc1NC12CC(N(C)C)(C1)C2)c1cccc(C(F)F)c1F [Example 53, (R)—N-(1-(3-(difluoromethyl)-2-fluorophenyl)ethyl)-2-((3-(dimethylamino)bicyclo[1.1.1]pentan-1-yl)amino)-4-fluoro-5-morpholinobenzamide] | – | 77.3 nM
C[C@@H](NC(=O)c1cc(-c2ccc(=O)n(C)c2)c(F)cc1NC1CCN(C)CC1)c1cccc(C(F)F)c1F [Example 62, (R)-N-(1-(3-(difluoromethyl)-2-fluorophenyl)ethyl)-4-fluoro-5-(1-methyl-6-oxo-1,6-dihydropyridin-3-yl)-2-((1-methylpiperidin-4-yl)amino)benzamide] | – | 10.5 nM
C[C@@H](NC(=O)c1cc(C2CC2)c(F)cc1NC1CCN(C)CC1)c1cccc(C(F)F)c1F [Example 67, (R)-5-cyclopropyl-N-(1-(3-(difluoromethyl)-2-fluorophenyl)ethyl)-4-fluoro-2-((1-methylpiperidin-4-yl)amino)benzamide] | 216 nM | –
C[C@@H](NC(=O)c1cc(C23CC(C2)C3)c(F)cc1NC1CCN(C)CC1)c1cccc(C(F)F)c1F [Example 68, (R)-5-(bicyclo[1.1.1]pentan-1-yl)-N-(1-(3-(difluoromethyl)-2-fluorophenyl)ethyl)-4-fluoro-2-((1-methylpiperidin-4-yl)amino)benzamide] | 138 nM | –

Next, values leading:

IC50 [1] | IC50 | Compound
74.6 nM | – | Cc1c(C#N)cccc1[C@@H](C)NC(=O)c1cc(N2CCOCC2)c(F)cc1NC1CCN(C)CC1 [Example 46, (R)—N-(1-(3-cyano-2-methylphenyl)ethyl)-4-fluoro-2-((1-methylpiperidin-4-yl)amino)-5-morpholinobenzamide]
33.7 nM | – | C[C@@H](NC(=O)c1cc(N2CCOCC2)c(F)cc1NCCN)c1cccc(C(F)F)c1F [Example 47, (R)-2-((2-aminoethyl)amino)-N-(1-(3-(difluoromethyl)-2-fluorophenyl)ethyl)-4-fluoro-5-morpholinobenzamide]
63.8 nM | – | C[C@@H](NC(=O)c1cc(N2CCOCC2)c(F)cc1NCCN(C)C)c1cccc(C(F)F)c1F [Example 48, (R)—N-(1-(3-(difluoromethyl)-2-fluorophenyl)ethyl)-2-((2-(dimethylamino)ethyl)amino)-4-fluoro-5-morpholinobenzamide]
64.8 nM | – | C[C@@H](NC(=O)c1cc(N2CCOCC2)c(F)cc1NC(C)(C)CN(C)C)c1cccc(C(F)F)c1F [Example 52, (R)—N-(1-(3-(difluoromethyl)-2-fluorophenyl)ethyl)-2-((1-(dimethylamino)-2-methylpropan-2-yl)amino)-4-fluoro-5-morpholinobenzamide]
74.1 nM | – | C[C@@H](NC(=O)c1cc(N2CCOCC2)c(F)cc1NC1(C)CN(C)C1)c1cccc(C(F)F)c1F [Example 54, (R)—N-(1-(3-(difluoromethyl)-2-fluorophenyl)ethyl)-2-((1,3-dimethylazetidin-3-yl)amino)-4-fluoro-5-morpholinobenzamide]
34.8 nM | – | Cc1c([C@@H](C)NC(=O)c2cc(-c3ccncc3)c(F)cc2NC2CCN(C)CC2)cccc1C(F)(F)F [Example 56, (R)-4-fluoro-N-(1-(2-methyl-3-(trifluoromethyl)phenyl)ethyl)-2-((1-methylpiperidin-4-yl)amino)-5-(pyridin-4-yl)benzamide]
9.8 nM | – | C[C@@H](NC(=O)c1cc(-c2ccncc2)c(F)cc1NC1CCN(C)CC1)c1cccc(C(F)F)c1F [Example 57, (R)—N-(1-(3-(difluoromethyl)-2-fluorophenyl)ethyl)-4-fluoro-2-((1-methylpiperidin-4-yl)amino)-5-(pyridin-4-yl)benzamide]
11 nM | – | C[C@@H](NC(=O)c1cc(-c2ccn(C)c(=O)c2)c(F)cc1NC1CCN(C)CC1)c1cccc(C(F)F)c1F [Example 60, (R)—N-(1-(3-(difluoromethyl)-2-fluorophenyl)ethyl)-4-fluoro-5-(1-methyl-2-oxo-1,2-dihydropyridin-4-yl)-2-((1-methylpiperidin-4-yl)amino)benzamide]
130 nM | – | Cc1c([C@@H](C)NC(=O)c2cc(-c3cnoc3)c(F)cc2NC2CCN(C)CC2)cccc1C(F)(F)F [Example 61, (R)-4-fluoro-5-(isoxazol-4-yl)-N-(1-(2-methyl-3-(trifluoromethyl)phenyl)ethyl)-2-((1-methylpiperidin-4-yl)amino)benzamide]
14.9 nM | – | C[C@@H](NC(=O)c1cc(-c2ccncc2F)c(F)cc1NC1CCN(C)CC1)c1cccc(C(F)F)c1F [Example 63, (R)-N-(1-(3-(difluoromethyl)-2-fluorophenyl)ethyl)-4-fluoro-5-(3-fluoropyridin-4-yl)-2-((1-methylpiperidin-4-yl)amino)benzamide]
8.3 nM | – | Cc1cc(-c2cc(C(=O)N[C@H](C)c3cccc(C(F)F)c3F)c(NC3CCN(C)CC3)cc2F)ccn1 [Example 64, (R)-N-(1-(3-(difluoromethyl)-2-fluorophenyl)ethyl)-4-fluoro-2-((1-methylpiperidin-4-yl)amino)-5-(2-methylpyridin-4-yl)benzamide]
6.9 nM | – | C[C@@H](NC(=O)c1cc(-c2ccnnc2)c(F)cc1NC1CCN(C)CC1)c1cccc(C(F)F)c1F [Example 65, (R)-N-(1-(3-(difluoromethyl)-2-fluorophenyl)ethyl)-4-fluoro-2-((1-methylpiperidin-4-yl)amino)-5-(pyridazin-4-yl)benzamide]
34.9 nM | – | C[C@@H](NC(=O)c1cc(-c2ccncn2)c(F)cc1NC1CCN(C)CC1)c1cccc(C(F)F)c1F [Example 66, (R)—N-(1-(3-(difluoromethyl)-2-fluorophenyl)ethyl)-4-fluoro-2-((1-methylpiperidin-4-yl)amino)-5-(pyrimidin-4-yl)benzamide]

From US20250368634A1, “PHENYL AMIDE COMPOUNDS AND METHODS OF USE” (SCHRÖDINGER, INC., priority 2022, published 2025)
